# According to the supplement of paper PMC10733146:
# How the values were obtained:
# Experiment in all cases: viability relative to DMSO control (fraction); higher = less drug effect (more viable cells)
# Details in all cases: 48 h
# [1] = compound: C1=N/C2=N/c3ccc(OCCN4CCCC4)c(c3)COC/C=C/COCc3cccc(c3)C(=C1)N2 [Pacritinib]
# Summary of the method: (§1)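 Primary mononuclear tumour cells (Ficoll-isolated from blood or bone marrow, or processed lymph node; fresh or cryopreserved) were plated at 4 × 10^4 cells per well in 384-well plates with pre-plated compounds at five concentrations, one well each. Medium was RPMI-1640 with penicillin/streptomycin, L-glutamine and human serum, at 37 °C and 5% CO2 for 48 h. Viability was read as CellTiter-Glo luminescence relative to the median of 16 inner DMSO wells.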
# [2] = compound: CC#CC(=O)N1CC[C@@H](n2c(=O)n(-c3ccc(Oc4ccccc4)cc3)c3c(N)ncnc32)C1 [ONO-4059]
# Summary of the method: as §1
# [3] = compound: CC(C)(C)c1cc(NC(=O)Nc2ccc(-c3cn4c(n3)sc3cc(OCCN5CCOCC5)ccc34)cc2)no1 [Quizartinib]
# Summary of the method: as §1
# [4] = compound: CC(C)(O)CNc1nc(Nc2ccnc(C(F)(F)F)c2)nc(-c2cccc(C(F)(F)F)n2)n1 [AG-221 (Enasidinib)]
# Summary of the method: as §1
# [5] = compound: CC(C)C[C@H](NC(=O)[C@H](CCc1ccccc1)NC(=O)CN1CCOCC1)C(=O)N[C@@H](Cc1ccccc1)C(=O)N[C@@H](CC(C)C)C(=O)[C@@]1(C)CO1 [Carfilzomib]
# Summary of the method: as §1
# [6] = compound: CC(C)C[C@H](NC(=O)[C@H](Cc1ccccc1)NC(=O)c1cnccn1)B(O)O [Bortezomib]
# Summary of the method: as §1
# [7] = compound: CC(C)N(C[C@H]1O[C@@H](n2cnc3c(N)ncnc32)[C@H](O)[C@@H]1O)[C@H]1C[C@@H](CCc2nc3cc(C(C)(C)C)ccc3[nH]2)C1 [EPZ-5676]
# Summary of the method: as §1
# [8] = compound: CC[C@@H]1C(=O)N(C)c2cnc(Nc3ccc(C(=O)N[C@H]4CC[C@H](N5CCN(CC6CC6)CC5)CC4)cc3OC)nc2N1C(C)C [BI6727]
# Summary of the method: as §1
# [9] = compound: CC[C@]1(O)C[C@H]2CN(CCc3c([nH]c4ccccc34)[C@@](C(=O)OC)(c3cc4c(cc3OC)N(C=O)[C@H]3[C@@](O)(C(=O)OC)[C@H](OC(C)=O)[C@]5(CC)C=CCN6CC[C@]43[C@@H]65)C2)C1 [Vincristine]
# Summary of the method: as §1
# [10] = compound: COc1nc(N)nc2c1ncn2[C@@H]1O[C@H](CO)[C@@H](O)[C@@H]1O [Nelarabine]
# Summary of the method: as §1
# [11] = compound: Cc1cc(Nc2cc(N3CCN(C)CC3)nc(Sc3ccc(NC(=O)C4CC4)cc3)n2)n[nH]1 [Tozasertib]
# Summary of the method: as §1
# [12] = compound: Cc1cn(-c2cc(NC(=O)c3ccc(C)c(Nc4nccc(-c5cccnc5)n4)c3)cc(C(F)(F)F)c2)cn1 [Nilotinib]
# Summary of the method: as §1
# [13] = compound: Cn1c(=O)n(-c2ccc(C(C)(C)C#N)cc2)c2c3cc(-c4cnc5ccccc5c4)ccc3ncc21 [BEZ235]
# Summary of the method: as §1
# [14] = compound: Nc1nc2n[nH]nc2c(=O)[nH]1 [8-Azaguanin]
# Summary of the method: as §1
test system,measurement,setting,value
primary AML patient cells (S021),viability,[1]; 0.024 µM,1.07
same,viability,[1]; 0.12 µM,1
same,viability,[1]; 0.6 µM,0.774
same,viability,[1]; 3 µM,0.459
same,viability,[1]; 15 µM,0.131
same,viability,[2]; 0.0016 µM,1.08
same,viability,[2]; 0.008 µM,0.982
same,viability,[2]; 0.04 µM,1.14
same,viability,[2]; 0.2 µM,1.05
same,viability,[2]; 1 µM,1.11
same,viability,[3]; 0.016 µM,1.18
same,viability,[3]; 0.08 µM,1.09
same,viability,[3]; 0.4 µM,1.02
same,viability,[3]; 2 µM,0.793
same,viability,[3]; 10 µM,1.1
same,viability,[4]; 0.024 µM,0.872
same,viability,[4]; 0.12 µM,0.856
same,viability,[4]; 0.6 µM,0.895
same,viability,[4]; 3 µM,0.734
same,viability,[4]; 15 µM,0.683
same,viability,[5]; 0.00016 µM,1.02
same,viability,[5]; 0.0008 µM,0.812
same,viability,[5]; 0.004 µM,0.15
same,viability,[5]; 0.02 µM,0.113
same,viability,[5]; 0.1 µM,0.111
same,viability,[6]; 0.008 µM,0.977
same,viability,[6]; 0.04 µM,0.963
same,viability,[6]; 0.2 µM,0.956
same,viability,[6]; 1 µM,0.979
same,viability,[6]; 5 µM,0.923
same,viability,[7]; 0.0032 µM,0.815
same,viability,[7]; 0.016 µM,0.934
same,viability,[7]; 0.08 µM,0.901
same,viability,[7]; 0.4 µM,0.821
same,viability,[7]; 2 µM,0.853
same,viability,[8]; 0.024 µM,0.927
same,viability,[8]; 0.12 µM,0.89
same,viability,[8]; 0.6 µM,0.855
same,viability,[8]; 3 µM,0.562
same,viability,[8]; 15 µM,0.23
same,viability,[9]; 0.016 µM,1.02
same,viability,[9]; 0.08 µM,0.693
same,viability,[9]; 0.4 µM,0.339
same,viability,[9]; 2 µM,0.289
same,viability,[9]; 10 µM,0.275
same,viability,[10]; 0.024 µM,0.992
same,viability,[10]; 0.12 µM,0.971
same,viability,[10]; 0.6 µM,0.992
same,viability,[10]; 3 µM,0.872
same,viability,[10]; 15 µM,0.899
same,viability,[11]; 0.024 µM,0.918
same,viability,[11]; 0.12 µM,0.914
same,viability,[11]; 0.6 µM,0.879
same,viability,[11]; 3 µM,0.796
same,viability,[11]; 15 µM,0.86
same,viability,[12]; 0.016 µM,1.15
same,viability,[12]; 0.08 µM,1.11
same,viability,[12]; 0.4 µM,1.03
same,viability,[12]; 2 µM,1.14
same,viability,[12]; 10 µM,1.1
same,viability,[13]; 0.024 µM,0.806
same,viability,[13]; 0.12 µM,0.919
same,viability,[13]; 0.6 µM,0.839
same,viability,[13]; 3 µM,0.943
same,viability,[13]; 15 µM,0.51
same,viability,[14]; 0.032 µM,1.14
same,viability,[14]; 0.16 µM,0.877
same,viability,[14]; 0.8 µM,0.897
same,viability,[14]; 4 µM,0.736
same,viability,[14]; 20 µM,0.53
primary B-PLL patient cells (S016),viability,[1]; 0.024 µM,0.979
same,viability,[1]; 0.12 µM,1.07
same,viability,[1]; 0.6 µM,0.884
same,viability,[1]; 3 µM,0.692
same,viability,[1]; 15 µM,0.0511
same,viability,[2]; 0.0016 µM,0.701
same,viability,[2]; 0.008 µM,0.554
same,viability,[2]; 0.04 µM,0.553
same,viability,[2]; 0.2 µM,0.491
same,viability,[2]; 1 µM,0.577
same,viability,[3]; 0.016 µM,1.03
same,viability,[3]; 0.08 µM,1.25
same,viability,[3]; 0.4 µM,1.04
same,viability,[3]; 2 µM,1.15
same,viability,[3]; 10 µM,1
same,viability,[4]; 0.024 µM,0.973
same,viability,[4]; 0.12 µM,0.917
same,viability,[4]; 0.6 µM,1.19
same,viability,[4]; 3 µM,0.892
same,viability,[4]; 15 µM,0.928
same,viability,[5]; 0.00016 µM,0.933
same,viability,[5]; 0.0008 µM,0.381
same,viability,[5]; 0.004 µM,0.0322
same,viability,[5]; 0.02 µM,0.0189
same,viability,[5]; 0.1 µM,0.0238
same,viability,[6]; 0.008 µM,0.99
same,viability,[6]; 0.04 µM,1.07
same,viability,[6]; 0.2 µM,1.01
same,viability,[6]; 1 µM,1.19
same,viability,[6]; 5 µM,1.02
same,viability,[7]; 0.0032 µM,0.991
same,viability,[7]; 0.016 µM,1.09
same,viability,[7]; 0.08 µM,0.93
same,viability,[7]; 0.4 µM,0.971
same,viability,[7]; 2 µM,1.05
same,viability,[8]; 0.024 µM,0.953
same,viability,[8]; 0.12 µM,0.973
same,viability,[8]; 0.6 µM,0.935
same,viability,[8]; 3 µM,0.8
same,viability,[8]; 15 µM,0.364
same,viability,[9]; 0.016 µM,0.225
same,viability,[9]; 0.08 µM,0.209
same,viability,[9]; 0.4 µM,0.161
same,viability,[9]; 2 µM,0.125
same,viability,[9]; 10 µM,0.0588
same,viability,[10]; 0.024 µM,0.896
same,viability,[10]; 0.12 µM,1.03
same,viability,[10]; 0.6 µM,0.898
same,viability,[10]; 3 µM,1.04
same,viability,[10]; 15 µM,0.674
same,viability,[11]; 0.024 µM,0.856
same,viability,[11]; 0.12 µM,0.74
same,viability,[11]; 0.6 µM,0.688
same,viability,[11]; 3 µM,0.619
same,viability,[11]; 15 µM,0.737
same,viability,[12]; 0.016 µM,1.31
same,viability,[12]; 0.08 µM,1.07
same,viability,[12]; 0.4 µM,1.11
same,viability,[12]; 2 µM,1.09
same,viability,[12]; 10 µM,1.16
same,viability,[13]; 0.024 µM,0.837
same,viability,[13]; 0.12 µM,0.867
same,viability,[13]; 0.6 µM,0.774
same,viability,[13]; 3 µM,0.865
same,viability,[13]; 15 µM,0.387
same,viability,[14]; 0.032 µM,0.998
same,viability,[14]; 0.16 µM,1.02
same,viability,[14]; 0.8 µM,0.731
same,viability,[14]; 4 µM,0.35
same,viability,[14]; 20 µM,0.118
primary FL patient cells (S022),viability,[1]; 0.024 µM,0.96
same,viability,[1]; 0.12 µM,1.09
same,viability,[1]; 0.6 µM,0.998
same,viability,[1]; 3 µM,0.429
same,viability,[1]; 15 µM,0.0378
same,viability,[2]; 0.0016 µM,1.05
same,viability,[2]; 0.008 µM,1.02
same,viability,[2]; 0.04 µM,1.06
same,viability,[2]; 0.2 µM,0.985
same,viability,[2]; 1 µM,1.13
same,viability,[3]; 0.016 µM,1.01
same,viability,[3]; 0.08 µM,1.04
same,viability,[3]; 0.4 µM,1.01
same,viability,[3]; 2 µM,1.21
same,viability,[3]; 10 µM,0.998
same,viability,[4]; 0.024 µM,0.807
same,viability,[4]; 0.12 µM,0.799
same,viability,[4]; 0.6 µM,0.781
same,viability,[4]; 3 µM,0.67
same,viability,[4]; 15 µM,0.687
same,viability,[5]; 0.00016 µM,0.875
same,viability,[5]; 0.0008 µM,0.117
same,viability,[5]; 0.004 µM,0.0482
same,viability,[5]; 0.02 µM,0.0455
same,viability,[5]; 0.1 µM,0.0491
same,viability,[6]; 0.008 µM,1
same,viability,[6]; 0.04 µM,1.05
same,viability,[6]; 0.2 µM,0.957
same,viability,[6]; 1 µM,0.931
same,viability,[6]; 5 µM,0.885
same,viability,[7]; 0.0032 µM,0.873
same,viability,[7]; 0.016 µM,1
same,viability,[7]; 0.08 µM,0.884
same,viability,[7]; 0.4 µM,0.856
same,viability,[7]; 2 µM,0.96
same,viability,[8]; 0.024 µM,1.04
same,viability,[8]; 0.12 µM,0.901
same,viability,[8]; 0.6 µM,0.959
same,viability,[8]; 3 µM,0.785
same,viability,[8]; 15 µM,0.178
same,viability,[9]; 0.016 µM,0.479
same,viability,[9]; 0.08 µM,0.448
same,viability,[9]; 0.4 µM,0.377
same,viability,[9]; 2 µM,0.349
same,viability,[9]; 10 µM,0.255
same,viability,[10]; 0.024 µM,1.03
same,viability,[10]; 0.12 µM,1.1
same,viability,[10]; 0.6 µM,0.93
same,viability,[10]; 3 µM,0.902
same,viability,[10]; 15 µM,0.811
same,viability,[11]; 0.024 µM,0.996
same,viability,[11]; 0.12 µM,0.882
same,viability,[11]; 0.6 µM,0.949
same,viability,[11]; 3 µM,0.807
same,viability,[11]; 15 µM,0.814
same,viability,[12]; 0.016 µM,0.974
same,viability,[12]; 0.08 µM,1.1
same,viability,[12]; 0.4 µM,0.985
same,viability,[12]; 2 µM,0.933
same,viability,[12]; 10 µM,1.03
same,viability,[13]; 0.024 µM,0.885
same,viability,[13]; 0.12 µM,0.977
same,viability,[13]; 0.6 µM,0.887
same,viability,[13]; 3 µM,0.827
same,viability,[13]; 15 µM,0.153
same,viability,[14]; 0.032 µM,0.987
same,viability,[14]; 0.16 µM,1.01
same,viability,[14]; 0.8 µM,0.843
same,viability,[14]; 4 µM,0.582
same,viability,[14]; 20 µM,0.363
